{"source": "patent US7884195B2", "about": "“Method of extracting ginsengnoside Rg2m, pharmaceutical composition including ginsengnoside Rg2, and uses thereof” (priority 2005, dated 2011)", "key": {"[1]": {"test_system": "Alzheimer Dementia (AD) model rats injected with beta-amyloid (Aβ1-40) and Ibotenic acid (IBA)", "assay": "Y-shaped electronic maze test of learning-memory ability, beta-amyloid (Aβ1-40) dementia model", "format": "in vivo, rat", "set-up": "key: number of stimuli needed for 9-10 successive correct responses", "details": "nimodipine 0.05 mg·kg^−1 i.v., once a day, 7 days", "experimental": "(§1) This experiment was carried out employing an Alzheimer Dementia (AD) model. 70 rats were divided into 7 groups consisting of 10 rats each and were anesthetized with chloral hydrate. Except for a placebo group, the remaining 6 groups were rendered dementia models by injecting 4 μg of beta-amyloid (Aβ1-40) and 1 μg of Ibotenic acid (IBA) into the hippocampus CA1 region of each rat. The placebo group was infused with an equal amount of physiological saline, instead of beta-amyloid and Ibotenic acid (IBA).\n(§2) The above-mentioned dementia model groups were subdivided into a control group to which physiological saline was administered, four experimental groups to which ginsenoside Rg2 was administered and a comparative group to which a medical dementia therapeutic agent, nimodipine was administered. Each group received the corresponding respective reagents via intravenous injection for 7 days, once a day, according to the dosages set forth in Table 7 below. […]\nOn day 6 of respective reagent administration, animals were subjected to a Y-shaped electronic maze test. Learning-memory ability of rats was determined according to the following method. […] After 24 hours, the stimulus times necessary for 9 to 10-time successive and exact response of rats were recorded again as the order of memory. […]"}, "[2]": {"test_system": "hippocampus CA1 nerve cell bodies", "assay": "Niss1 staining, loss of nerve cell bodies, Aβ1-40 dementia model", "format": "in vivo, rat", "details": "nimodipine 0.05 mg·kg^−1 i.v., once a day, 7 days", "experimental": "as §1\nas §2, with “below. Herein, reagents, which are administered to experimental groups, are isomeric C-20(S) ginsenoside Rg2 and C-20(R) ginsenoside Rg2, and mixed-type C-20(SR) ginsenoside Rg2 (in the following Tables, referred to as S, R and SR, respectively).” for “below.”"}, "[3]": {"test_system": "hippocampus nerve cells", "assay": "TUNEL staining, in situ cell death (apoptosis), Aβ1-40 dementia model", "format": "in vivo, rat", "details": "nimodipine 0.05 mg·kg^−1 i.v., once a day, 7 days", "experimental": "as §1\nas §2, with “below. Herein, reagents, which are administered to experimental groups, are isomeric C-20(S) ginsenoside Rg2 and C-20(R) ginsenoside Rg2, and mixed-type C-20(SR) ginsenoside Rg2 (in the following Tables, referred to as S, R and SR, respectively).” for “below.”"}, "[4]": {"test_system": "Bax", "assay": "Expression of Bax in hippocampus, Aβ1-40 dementia model", "format": "in vivo, rat", "details": "nimodipine 0.05 mg·kg^−1 i.v., 7 days; 10 rats per group", "experimental": "as §1\n(§3) The above-mentioned dementia model groups were subdivided into a control group to which physiological saline was administered, four experimental groups to which ginsenoside Rg2 was administered and a comparative group to which a medical dementia therapeutic agent, nimodipine was administered. Each group received the corresponding respective reagents via intravenous injection for 7 days, once a day, according to the dosages set forth in Table 7 below. Herein, reagents, which are administered to experimental groups, are isomeric C-20(S) ginsenoside Rg2 and C-20(R) ginsenoside Rg2, and mixed-type C-20(SR) ginsenoside Rg2 (in the following Tables, referred to as S, R and SR, respectively).\n(§4) In addition, 24 hours after examination of learning-memory ability, the front and rear of the injected site of the hippocampus CA1 region were successively sliced and subjected to Niss1 staining, HE staining, and chemical examination of immune tissues and in situ cell death, thereby observing morphological changes of hippocampus neuron cell zones, necrosis, degree of cell loss, rate of cell death, and degree of expression of Bax/Bcl-2 and C-fos genes."}, "[5]": {"test_system": "Bcl-2", "assay": "Expression of Bcl-2 in hippocampus, Aβ1-40 dementia model", "format": "in vivo, rat", "details": "nimodipine 0.05 mg·kg^−1 i.v., 7 days; 10 rats per group", "experimental": "as §1, §3, §4"}, "[6]": {"test_system": "C-fos", "assay": "Expression of C-fos in hippocampus, Aβ1-40 dementia model", "format": "in vivo, rat", "details": "nimodipine 0.05 mg·kg^−1 i.v., 7 days; 10 rats per group", "experimental": "as §1, §3, §4"}, "[7]": {"test_system": "multiple infarct dementia (MID) model rats", "assay": "Y-shaped electronic maze test of learning-memory ability, multiple infarct dementia (MID) model", "format": "in vivo, rat", "set-up": "key: stimuli needed for 9-10 successive correct responses (memory: 24 h later)", "details": "nimodipine 0.05 mg·kg^−1 i.v., once a day, 7 days", "experimental": "On day 6 of respective reagent administration, animals were subjected to a Y-shaped electronic maze test. Learning-memory ability of rats was determined according to the following method. Firstly, the order of learning is taken as the number of stimulus times necessary for 9 to 10-time successive and exact response of rats. After 24 hours, the stimulus times necessary for 9 to 10-time successive and exact response of rats were recorded again as the order of memory. Based on the recordings thus obtained, a t-test was made between respective groups.\nThis experiment was carried out employing a multiple infarct dementia (MID) model. 56 rats were divided into 7 groups consisting of 8 rats each and were anesthetized with 10% chloral hydrate. Except for a placebo group, the remaining 6 groups were established as dementia models by injecting 0.13 ml/100 g of a composite thrombosis-inducing agent into the carotid artery of each rat, restoring anatomical structures thereof and suturing skins along layers. The placebo group was injected with an equal amount of physiological saline, instead of the composite thrombosis-inducing agent. […]\nOn day 6 of respective reagent administration, learning-memory ability of animals was determined according to the same manner as in Experimental Example 1."}, "[8]": {"test_system": "glutamate (Glu)", "assay": "Glu-positive neurons in CPU region, MID model", "format": "in vivo, rat", "details": "nimodipine 0.05 mg·kg^−1 i.v., once a day, 7 days", "experimental": "(§5) This experiment was carried out employing a multiple infarct dementia (MID) model. 56 rats were divided into 7 groups consisting of 8 rats each and were anesthetized with 10% chloral hydrate. Except for a placebo group, the remaining 6 groups were established as dementia models by injecting 0.13 ml/100 g of a composite thrombosis-inducing agent into the carotid artery of each rat, restoring anatomical structures thereof and suturing skins along layers. The placebo group was injected with an equal amount of physiological saline, instead of the composite thrombosis-inducing agent.\nas §3, with “The above” for “The above-mentioned”, “to” for “to the”, “Table 12” for “Table 7”, “following experiments,” for “following Tables,”, “respectively). […]” for “respectively).”"}, "[9]": {"test_system": "Bax", "assay": "Bax-positive neurons in CPU region, MID model", "format": "in vivo, rat", "details": "nimodipine 0.05 mg·kg^−1 i.v., once a day, 7 days", "experimental": "as §5\nas §3, with “The above” for “The above-mentioned”, “to” for “to the”, “Table 12” for “Table 7”, “following experiments,” for “following Tables,”, “respectively). […]” for “respectively).”"}, "[10]": {"test_system": "Caspase-3", "assay": "Caspase-3-positive neurons in CPU region, MID model", "format": "in vivo, rat", "details": "nimodipine 0.05 mg·kg^−1 i.v., once a day, 7 days", "experimental": "as §5\nas §3, with “The above” for “The above-mentioned”, “to” for “to the”, “Table 12” for “Table 7”, “following experiments,” for “following Tables,”, “respectively). […]” for “respectively).”"}, "[11]": {"test_system": "Calpain II", "assay": "Calpain II-positive neurons in CPU region, MID model", "format": "in vivo, rat", "details": "nimodipine 0.05 mg·kg^−1 i.v., once a day, 7 days", "experimental": "as §5\nas §3, with “The above” for “The above-mentioned”, “to” for “to the”, “Table 12” for “Table 7”, “following experiments,” for “following Tables,”, “respectively). […]” for “respectively).”"}, "[12]": {"test_system": "PC12 cells", "assay": "MTT metabolism after glutamic acid damage of PC12 cells", "format": "cell-based", "details": "nimodipine 5 pmol; 1 mmol/L glutamic acid, 20 hours; OD at 490 nm", "experimental": "100 μl/well of PC12 culture having a cell density of 10^5 cells/mL was inoculated into a 96-well plate and PC12 cells were allowed to adhere to walls of the plate. Wells were divided into 6 groups to which 6 wells were assigned each.\nA serum-free medium was added to a non-treatment group, 1 mmol/L of a serum-free medium containing glutamic acid and an equal volume (1 mmol/L) of 20% 1,2-polyethylene glycol were added to a control group, 1 mmol/L of a serum-free medium containing glutamic acid and 0.1 mmol/L of respective structures of ginsenoside Rg2 were added to experimental groups, and 5 pmol of nimodipine, instead of ginsenoside Rg2, was added to a comparative group. Then, PC12 cells of respective groups were cultured at 37° C. for 20 hours.\n20 μl/well of MTT (5 g/L) was added to respective groups and cells were continuously cultured at 37° C. for 4 hours. Then, the original medium was aspirated, and 0.1 ml/well of dimethyl sulfoxide (DMSO) was added to dissolve red granules. Next, optical density (OD) at 490 nm was measured using an enzyme-linked immuno-assay and then a t-test was made between groups."}}, "note": "Marks after values point to notes of the source that are not given here.", "data": [{"compound": "COCCOC(=O)C1=C(C)NC(C)=C(C(=O)OC(C)C)C1c1cccc([N+](=O)[O-])c1", "note": "(centres unmarked) [Nimodipine, nimodipine, reference compound]", "values": [{"measurement": "Order of Memory", "setting": "[1]; 24 hours after learning", "value": "4.10 ± 4.80"}, {"measurement": "Order of Learning", "setting": "[1]; test on day 6", "value": "8.60 ± 4.58"}, {"measurement": "Length of nerve cell body loss", "setting": "[2]", "value": "259.14 ± 60.36", "unit": "μm"}, {"measurement": "Rate of nerve cell death", "setting": "[3]", "value": "19.83 ± 2.93"}, {"measurement": "Expression Intensity of bax, count at grade +", "setting": "[4]", "value": 7}, {"measurement": "Expression Intensity of bax, count at grade ++", "setting": "[4]", "value": 3}, {"measurement": "Expression Intensity of bax, count at grade +++", "setting": "[4]", "value": "0**"}, {"measurement": "Expression Intensity of bax, count at grade −", "setting": "[4]", "value": 0}, {"measurement": "Expression Intensity of bcl-2, count at grade +", "setting": "[5]", "value": 5}, {"measurement": "Expression Intensity of bcl-2, count at grade ++", "setting": "[5]", "value": 4}, {"measurement": "Expression Intensity of bcl-2, count at grade +++", "setting": "[5]", "value": "1**"}, {"measurement": "Expression Intensity of bcl-2, count at grade −", "setting": "[5]", "value": 0}, {"measurement": "Expression Intensity of C-fos, count at grade +", "setting": "[6]", "value": 3}, {"measurement": "Expression Intensity of C-fos, count at grade ++", "setting": "[6]", "value": 4}, {"measurement": "Expression Intensity of C-fos, count at grade +++", "setting": "[6]", "value": "3*"}, {"measurement": "Expression Intensity of C-fos, count at grade −", "setting": "[6]", "value": 0}, {"measurement": "Order of Memory", "setting": "[7]", "value": "0.0 ± 0.0"}, {"measurement": "Order of Learning", "setting": "[7]; test on day 6", "value": "2.5 ± 3.70"}, {"measurement": "Number of Glu-positive cells", "setting": "[8]", "value": "11.8 ± 3.89"}, {"measurement": "Number of Bax-positive cells", "setting": "[9]", "value": "3.2 ± 2.47"}, {"measurement": "Number of Caspase-3 positive cells", "setting": "[10]", "value": "2.3 ± 2.72"}, {"measurement": "Number of Calpain II-positive cells", "setting": "[11]", "value": "3.9 ± 0.67"}, {"measurement": "MTT (OD)", "setting": "[12]", "value": "0.086 ± 0.017"}]}]}
